Data on one compound can be found in patent publication US20210315844A1, “ENDOXIFEN FOR THE TREATMENT OF BIPOLAR I DISORDER” (Jina Pharmaceuticals, Inc., priority 2020, published 2021).

The test system of data set [1] is patient of bipolar I disorders. Put plainly: Clinical study: C-SSRS score / risk of suicidal behavior in patients treated with endoxifen enteric coated tablet. Format: in vivo, human. The settings on record: day 21 (EOT). How it is done: Clinical study of an enteric coated tablet comprising endoxifen citrate formulation was carried out by administering to the patient doses of 2 mg to 16 mg of endoxifen citrate in an enteric coated tablet once per day for at least 21 days according to the present application.
This study was a multicenter, randomized, double-blind, double-dummy, active controlled, parallel study to assess the efficacy and safety of endoxifen enteric coated tablet 8 mg and divalproex sodium extended release tablet 1000 mg in patient of bipolar I disorders, this study also evaluated the risk of suicidal behavior in the patient and that has progressed during or after treatment with at least one drug(s) selected from lithium, valproate, carbamazepine or an atypical (except clozapine) or typical antipsychotic.
Total 110 patients were qualified for PP population.

The test system of another data set is PKC. Conditions: relative to tamoxifen; cited from earlier work.

Consider `CC/C(=C(\c1ccc(O)cc1)c1ccc(OCCNC)cc1)c1ccccc1.O=C(O)CC(O)(CC(=O)O)C(=O)O` [Endoxifen, (Z)-1-(4-Hydroxyphenyl)-1-{4-[2-(monomethylamino)ethoxy]phenyl}-2-phenyl-1-butene citrate], for which the “risk of suicidal behavior” value in data set [1] is “zero”. In the data set with PKC, the “potency in inhibiting the PKC activity compared to tamoxifen” value was “four-fold higher potency”.
